Measured values reported in patent publication EP0076622A1, “Anthelmintics” (BEECHAM GROUP PLC, priority 1981, dated 1983).

Test system: Nematospiroides dubius
Test: Oral activity against experimental infections of Nematospiroides dubius in the mouse (worm numbers of treated vs untreated control animals)
Format: in vivo
Settings: calculated from worm numbers of treated and control animals; for inhibition in vivo at 100 mg/kg / inhibition in vivo at 200 mg/kg: Heligmosomoides polygyrus, po
Protocol: The oral activity of the following compounds, against experimental infections of Nematospiroides dubius in the mouse, was calculated from a comparison of the worm numbers of treated and control (untreated) animals.

Row | Compound | inhibition in vivo at 200 mg/kg (Dose 200 mg/kg (p.o.)) [%] | further results
1 | CSC(=Nc1cccc(C2CN3CCSC3=N2)c1)Nc1cccc([N+](=O)[O-])c1 (stereo not shown) [Example 58] | 95 | inhibition in vivo at 100 mg/kg (Dose 100 mg/kg (p.o.)): 95%
2 | CSC(=Nc1cccc(C2CN3CCSC3=N2)c1)Nc1ccc(C)c(C)c1 (stereo not shown) [Example 56] | 0 | 
3 | S-Methyl-N-[4-nitrophenyl]-N'-[3-(6-{2,3,5,6-tetra- hydroimidaza[2,1-b]thiazolyl})phenyl]isothiourea [Example 16] |  | Activity % (Dose 50 mg/kg (p.o.)): 95%; Activity % (Dose 100 mg/kg (p.o.)): 100%; Activity % (Dose 200 mg/kg (p.o.)): 100%
4 | CSC(=Nc1cccc(C2CN3CCSC3=N2)c1)Nc1cccc(C)c1 (stereo not shown) [Example 57] | 100 | inhibition in vivo at 100 mg/kg (Dose 100 mg/kg (p.o.)): 40%
5 | CSC(=Nc1cccc(C2CN3CCSC3=N2)c1)Nc1ccc(Cl)cc1 (stereo not shown) [Example 17, S-Methyl-N-[4-chlorophenyl]-N'-[3-(6-{2,3,5,6-tetra-hydroimidazo[2,1-b]thiazolyl})phenyl]isothiourea] | 88 | 
6 | COc1ccc(NC(=Nc2cccc(C3CN4CCSC4=N3)c2)SC)cc1 (stereo not shown) [p-C6H4OCH3] | 59 | 
7 | CSC(=Nc1cccc(C2CN3CCSC3=N2)c1)Nc1ccc(C)cc1 (stereo not shown) [Example 19, S-Methyl-N-[4-methylphe_nyl]-N'-[3-(6-{2,3,5,6-tetra-hydroimidazo[2,1-b]thiazolyl})phenyl]isothiourea] | 0 | 
8 | CSC(=Nc1cccc(C2CN3CCSC3=N2)c1)NC1CCCCC1 (stereo not shown) [Example 76] | 15 | 
9 | S-Methyl-N-[4-acetylphenyl]-N'-[3-(6-{2,3,5,6-tetra- hydroimidazo-[2,1-b]thiazolyl})phenyl]isothiourea [Example 25] |  | Activity % (Dose 100 mg/kg (p.o.)): 93%; Activity % (Dose 200 mg/kg (p.o.)): 100%
10 | CCSC(=Nc1cccc(C2CN3CCSC3=N2)c1)Nc1ccccc1 (stereo not shown) [Example 22, S-Ethyl-N-phenyl-N'-[3-(6{2,3,5,6-tetrahydroimidazo-[2,1-b]thiazolyl})phenyl]isothiourea] | 92 | 
11 | S-Methyl-N-[3,4-dichlorophenyl]-N'-[3-(6{2,3,5,6-tetra- hydroimidazo[2,1-b]thiazolyl}) phenyl]isothiourea [Example 18] |  | Activity % (Dose 200 mg/kg (p.o.)): 34%
12 | CSC(=Nc1cccc(C2CN3CCSC3=N2)c1)Nc1ccc(F)cc1 (stereo not shown) [Example 14, S-Methyl-N-[4-fluorophenyl]-N'-[3-(6-{2,3,5,6-tetra-hydroimidazo [2,1-b]thiazolyl})phenyl]isothiourea] | 100 | 
13 | CSC(=Nc1cccc(C2CN3CCSC3=N2)c1)NCc1ccccc1 (stereo not shown) [Example 75] | 54 | 
14 | S-Methyl-N-[4-cyanophenyl]-N'-[3-(6-{2,3.5,6-tetra- hydroimidazo[2,1-b]thiazolyl})phenyl]isothiourea [Example 24] |  | Activity % (Dose 100 mg/kg (p.o.)): 99%; Activity % (Dose 200 mg/kg (p.o.)): 100%
15 | CSC(=Nc1cccc(C2CN3CCSC3=N2)c1)Nc1cccc(F)c1 (stereo not shown) [Example 15, S-Methyl-N-[3-fluorophenyl]-N'-[3-(6-{2,3,5,6-tetra-hydroimidazo[2,1-b]thiazolyl})phenyl]isothiourea] | 100 | inhibition in vivo at 100 mg/kg (Dose 100 mg/kg (p.o.)): 100%
16 | CSC(=Nc1cccc(C2CN3CCSC3=N2)c1)Nc1cccc(Cl)c1 (stereo not shown) [Example 20] | 100 | inhibition in vivo at 100 mg/kg (Dose 100 mg/kg (p.o.)): 87%
17 | CSC(=Nc1cccc(C2CN3CCSC3=N2)c1)Nc1ccccc1 (stereo not shown) [Example 13] | 99 | 
